These molecules were tested against T1, USP7 (Homo sapiens, UniProt Q93009, C315A) (assay: Inhibition of USP7 by Fluorescence Intensity (FLINT) readings, Ubiquitin-Rhodamine-110 substrate). Conditions: 0.25 nM His-His-USP7 (aa208-560, [C315A]); compound 60 minutes at 30° C.; 500 nM Ubiquitin-Rhodamine substrate; 11-point curves.
T1 construct: 0.25 nM His-His-USP7 (aa208-560, [C315A]) was incubated with compound; His-His (N)
Type: biochemical
Method: USP7 activity was measured using Rhodamine-110 c-terminal labelled Ubiquitin as a substrate (Viva Biosciences). Incubation with USP7 results in the release of Rhodamine-110 leading to an increase in fluorescence which can be used in the continuous measurement of USP7 activity.
The USP7 reactions were performed in a 50 μL volume, in 384 well black solid low binding plates (Corning #3575). The reaction buffer consisted of 100 mM Bicine pH 8.0, 0.01% TritonX 100, 1 mM TCEP, and 10% DMSO.
0.25 nM His-His-USP7 (aa208-560, [C315A]) was incubated with compound (final concentration 10% DMSO) for 60 minutes at 30° C. The reaction was then initiated by the addition of 500 nM Ubiquitin-Rhodamine-10 substrate and the plate read every 3 minutes for 21 minutes to measure the release of Rhodamine-110. Fluorescence Intensity (FLINT) readings were measured using a Biomek Neo plate reader (Ex. 485 nm. Em. 535 nm).
The inhibition of increasing doses of compound was expressed as a percentage reduction in kinetic rate compared to the kinetic rates established between ‘DMSO only’ and ‘total inhibition’ controls (no USP7). The inhibitory concentrations that gave a 50% reduction in kinetic rate (IC50) were determined, from 11-point dose response curves, in XL-Fit using a 4-Parameter Logistic Model (Sigmoidal Dose-Response Model).

T1 sequence (Q93009 208-560 C315A): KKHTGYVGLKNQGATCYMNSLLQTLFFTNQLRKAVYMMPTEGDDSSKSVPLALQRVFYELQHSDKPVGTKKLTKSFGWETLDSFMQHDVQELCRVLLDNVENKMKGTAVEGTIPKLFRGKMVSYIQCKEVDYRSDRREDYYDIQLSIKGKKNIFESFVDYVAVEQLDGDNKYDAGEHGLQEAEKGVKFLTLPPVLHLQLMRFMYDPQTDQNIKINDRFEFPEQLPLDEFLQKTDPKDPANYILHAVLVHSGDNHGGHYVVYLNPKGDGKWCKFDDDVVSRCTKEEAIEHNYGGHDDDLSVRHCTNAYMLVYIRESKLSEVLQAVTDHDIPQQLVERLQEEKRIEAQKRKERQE

Question: With `O=C(Cc1cccc(O)c1)Nc1ccc2ncn(CC3(O)CCN(C(=O)[C@@H]4CCCC[C@H]4c4ccccc4)CC3)c(=O)c2n1` (relative stereo) [Example 104, 2-(3-hydroxyphenyl)-N-[3-[[4-hydroxy-1-(trans-2-phenylcyclohexanecarbonyl)-4-piperidyl]methyl]-4-oxo-pyrido[3,2-d]pyrimidin-6-yl]acetamide] as the molecule, how does the IC50 read?
Answer: Its IC50 is 21.7 nM.

Question: Which IC50 does the source give for `COc1ccc(-n2ccc3c(=O)n(CC4(O)CCN(C(=O)[C@@H]5C(C)=CCC[C@H]5c5ccsc5)CC4)cnc32)cc1` (single isomer, unassigned) [Example 61, 3-[[4-hydroxy-1-[trans-2-methyl-6-(3-thienyl)cyclohex-2-ene-1-carbonyl]-4-piperidyl]methyl]-7-(4-methoxyphenyl)pyrrolo[2,3-d]pyrimidin-4-one] here?
Answer: Its IC50 is 72.3 nM.

Question: With `O=C([C@@H]1CCCC[C@H]1c1ccoc1)N1CCC(O)(Cn2cnc3cccnc3c2=O)CC1` (relative stereo) [Example 4, 3-[[1-[trans-2-(3-furyl)cyclohexanecarbonyl]-4-hydroxy-4-piperidyl]methyl]pyrido[3,2-d]pyrimidin-4-one] as the molecule, how does the IC50 read?
Answer: The IC50 was 4580 nM.

Question: For `O=C([C@@H]1CC(F)(F)CC[C@H]1c1ccccc1)N1CCC(O)(Cn2cnc3c(ccn3-c3ccccc3)c2=O)CC1` (single isomer, unassigned) [Example 31, 3-[[1-[trans-5,5-difluoro-2-phenyl-cyclohexanecarbonyl]-4-hydroxy-4-piperidyl]methyl]-7-phenyl-pyrrolo[2,3-d]pyrimidin-4-one], which IC50 is on record?
Answer: The IC50 was 2760 nM.

Question: For `COc1ccc(CNc2ccc3ncn(CC4(O)CCN(C(=O)[C@@H]5CCCC[C@H]5c5ccccc5)CC4)c(=O)c3n2)cc1` (relative stereo) [Example 94, 3-[[4-hydroxy-1-(trans-2-phenylcyclohexanecarbonyl)-4-piperidyl]methyl]-6-[(4-methoxyphenyl)methylamino]pyrido[3,2-d]pyrimidin-4-one], which IC50 is on record?
Answer: The IC50 was 351 nM.

Question: Which IC50 does the source give for `COc1ccc(-n2ccc3c(=O)n(CC4(O)CCN(C(=O)C5CCCN5c5ccccc5)CC4)cnc32)cc1` (stereo not shown) [Example 11, 3-[[4-hydroxy-1-(1-phenylpyrrolidine-2-carbonyl)-4-piperidyl]methyl]-7-(4-methoxyphenyl)pyrrolo[2,9-d]pyrimidin-4-one] here?
Answer: Its IC50 is 2570 nM.

Question: `COc1ccc(-n2ccc3c(=O)n(CC4(O)CCN(C(=O)C5C(C)=CCCC5c5cccs5)CC4)cnc32)cc1` (single isomer, unassigned) [Example 60, 3-[[4-hydroxy-1-[trans-2-methy-6-(2-thienyl)cyclohex-2-ene-1-carbonyl]-4-piperidyl]methyl]-7-(4-methoxyphenyl)pyrrolo[2,3-d]pyrimidin-4-one] was tested. Which IC50 did it give?
Answer: Its IC50 is 725 nM.

Question: How did the IC50 turn out when `COc1ccc(-n2ccc3c(=O)n(CC4(O)CCN(C(=O)[C@@H]5C(C)=CCC[C@H]5c5cccs5)CC4)cnc32)cc1` (single isomer, unassigned) [Example 59, 3-[[4-hydroxy-1-[trans-2-methyl-6-(2-thienyl)cyclohex-2-ene-1-carbonyl]-4-piperidyl]methyl]-7-(4-methoxyphenyl)pyrrolo[2,3-d]pyrimidin-4-one] was run?
Answer: Its IC50 is 65.2 nM.

Question: Which IC50 does the source give for `Cn1ccnc1[C@@H]1CCCC[C@H]1C(=O)N1CCC(O)(Cn2cnc3c(ccn3-c3ccccc3)c2=O)CC1` (single isomer, unassigned) [Example 57, 3-[[4-hydroxy-1-[trans-2-(1-methylimidazol-2-yl)cyclohexanecarbonyl]-4-piperidyl]methyl]-7-phenyl-pyrrolo[2,3-d]pyrimidin-4-one] here?
Answer: Its IC50 is 28400 nM.

Question: `COc1ccc(-n2ccc3c(=O)n(CC4(O)CCN(C(=O)[C@@H]5OCCO[C@@H]5c5ccccc5)CC4)cnc32)cc1` (single isomer, unassigned) [Example 7, 3-[[4-hydroxy-1-[cis-3-phenyl-1,4-dioxane-2-carbonyl]-4-piperidyl]methyl]-7-(4 methoxyphenyl)pyrrolo[2,3-d]pyrimidin-4-one] was tested. Which IC50 did it give?
Answer: The IC50 was 6500 nM.

Question: For `COc1ccc(-n2ccc3c(=O)n(CC4(O)CCN(C(=O)[C@@H]5CCCC[C@H]5n5cccc5)CC4)cnc32)cc1` (single isomer, unassigned) [Example 16, 3-[[4-hydroxy-1-[trans-2-pyrrol-1-ylcyclohexanecarbonyl]-4-piperidyl]methyl]-7-(4-methoxyphenyl)pyrrolo[2,3-d]pyrimidin-4-one], which IC50 is on record?
Answer: The IC50 was 2970 nM.

Question: For `O=C([C@@H]1CC(F)(F)CC[C@H]1c1ccccc1)N1CCC(O)(Cn2cnc3c(-c4ccccc4)scc3c2=O)CC1` (single isomer, unassigned) [Example 78, 3-[[1-[trans-5,5-difluoro-2-phenyl-cyclohexanecarbonyl]-4-hydroxy-4-piperidyl]methyl]-7-phenyl-thieno[3,4-d]pyrimidin-4-one], which IC50 is on record?
Answer: Its IC50 is 10300 nM.

Question: How did the IC50 turn out when `COc1ccc(-n2ccc3c(=O)n(CC4(O)CCN(C(=O)[C@@H]5CCCC[C@H]5c5nccn5C)CC4)cnc32)cc1` (single isomer, unassigned) [Example 70, 3-[[4-hydroxy-1-[trans-2-(1-methylimidazol-2-yl)cyclohexanecarbonyl]-4-piperidyl]methyl]-7-(4-methoxyphenyl)pyrrolo[2,3-d]pyrimidin-4-one] was run?
Answer: The IC50 was 9230 nM.

Question: With `Cn1ccc2c(=O)n(CC3(O)CCN(C(=O)[C@@H]4CCCC[C@H]4c4ccoc4)CC3)cnc21` (relative stereo) [Example 3, 3-[[1-[trans-2-(3-furyl)cyclohexanecarbonyl]-4-hydroxy-4-piperidyl]methyl]-7-methyl-pyrrolo[2,3-d]pyrimidin-4-one] as the molecule, how does the IC50 read?
Answer: The IC50 was 530 nM.

Question: Which IC50 does the source give for `O=C([C@@H]1CCCC[C@H]1c1ccsc1)N1CCC(O)(Cn2cnc3cccnc3c2=O)CC1` (relative stereo) [Example 1, 3-[[4-hydroxy-1-[trans-2-(3-thienyl)cyclohexanecarbonyl]-4-piperidyl]methyl]pyrido[3,2-d]pyrimidin-4-one] here?
Answer: Its IC50 is 916 nM.

Question: For `O=C(C1CCCC(O)C1c1ccccc1)N1CCC(O)(Cn2cnc3c(ccn3-c3ccccc3)c2=O)CC1` (single isomer, unassigned) [Example 56, (1S,2S,3S or 1R,2R,3R)-3-[[4-hydroxy-1-[3-hydroxy-2-phenyl-cyclohexanecarbonyl]-4-piperidyl]methyl]-7-phenyl-pyrrolo[2,3-d]pyrimidin-4-one], which IC50 is on record?
Answer: Its IC50 is 2550 nM.

Question: `COc1ccc(C(=O)Nc2ccc3ncn(CC4(O)CCN(C(=O)[C@@H]5CCCC[C@H]5c5ccccc5)CC4)c(=O)c3n2)cc1` (relative stereo) [Example 107, N-[3-[[4-hydroxy-1-(trans-2-phenylcyclohexanecarbonyl)-4-piperidyl]methyl]-4-oxo-pyrido[3,2-d]pyrimidin-6-yl]-4-methoxy-benzamide] was tested. Which IC50 did it give?
Answer: Its IC50 is 102 nM.

Question: `COc1ccc(-n2ccc3c(=O)n(CC4(O)CCN(C(=O)[C@@H]5CCCC[C@H]5c5ccc(F)cc5)CC4)cnc32)cc1` (single isomer, unassigned) [Example 40, 3-[[1-[trans-2-(4-fluorophenyl)cyclohexanecarbonyl]-4-hydroxy-4-piperidyl]methyl]-7-(4-methoxyphenyl)pyrrolo[2,3-d]pyrimidin-4-one] was tested. Which IC50 did it give?
Answer: Its IC50 is 883 nM.

Question: With `Nc1ccc2ncn(CC3(O)CCN(C(=O)[C@@H]4CCCC[C@H]4c4ccccc4)CC3)c(=O)c2n1` (relative stereo) [Example 100, 6-amino-3-[[4-hydroxy-1-(trans-2-phenylcyclohexanecarbonyl)-4-piperidyl]methyl]pyrido[3,2-d]pyrimidin-4-one] as the molecule, how does the IC50 read?
Answer: The IC50 was 226 nM.

Reference: patent US11332472B2, “Substituted piperidines as inhibitors of ubiquitin specific protease 7” (LES LABORATOIRES SERVIER, priority 2017, dated 2022)
